Source: the NIST ThermoML archive (doi:10.1007/s10765-013-1492-1)
Where “and” joins values, the source holds several entries; their conditions need not be identical. Equal entries are not always repeated. Numbers after ± are expanded uncertainties.

What was measured:
[1] = xn = mol fraction of the nth substance listed; settings: 101 kPa, Liquid
[2] = 101 kPa, Liquid

O=[N+]([O-])c1ccccc1 [nitrobenzene] + O=Cc1ccccc1
[1], x2 = 0
Settings	mass density [kg/m3]	speed of sound [m/s]	viscosity [mPa·s]
303.15 K	1189.6 ± 5.4	1407 ± 15	1.618 ± 0.075
308.15 K	1189.4 ± 5.5	1361 ± 15	1.618 ± 0.075
313.15 K	1187.2 ± 5.6	1326 ± 15	1.61 ± 0.075

Clc1ccccc1 [chlorobenzene]
[2]
Settings	mass density [kg/m3]	speed of sound [m/s]	viscosity [mPa·s]
303.15 K	1086.6 ± 5	1249 ± 14	0.7147 ± 0.048
308.15 K	1085.1 ± 5.1	1224 ± 14	0.7469 ± 0.05
313.15 K	1081.1 ± 5.2	1220 ± 14	0.7383 ± 0.05

O=[N+]([O-])c1ccccc1 [nitrobenzene]
[2]
Settings	mass density [kg/m3]	speed of sound [m/s]	viscosity [mPa·s]
303.15 K	1189.6 ± 5.4	1407 ± 15	1.618 ± 0.075
308.15 K	1189.4 ± 5.5	1361 ± 15	1.618 ± 0.075
313.15 K	1187.2 ± 5.6	1326 ± 15	1.61 ± 0.075

O=Cc1ccccc1 [benzaldehyde] + O=[N+]([O-])c1ccccc1
[1]
Settings	mass density, 303.15 K [kg/m3]	mass density, 308.15 K [kg/m3]	mass density, 313.15 K [kg/m3]	speed of sound, 303.15 K [m/s]	speed of sound, 308.15 K [m/s]	speed of sound, 313.15 K [m/s]	viscosity, 303.15 K [mPa·s]	viscosity, 308.15 K [mPa·s]	viscosity, 313.15 K [mPa·s]
x1 = 0.1018	1170.8 ± 5.3	1170.6 ± 5.4	1166.6 ± 5.5	1409.5 ± 15	1366.2 ± 15	1332.4 ± 15	1.556 ± 0.072	1.546 ± 0.072	1.524 ± 0.071
x1 = 0.2032	1160.2 ± 5.3	1159.9 ± 5.4	1150.6 ± 5.4	1412 ± 15	1372 ± 15	1340 ± 15	1.534 ± 0.072	1.504 ± 0.07	1.472 ± 0.069
x1 = 0.3043	1143 ± 5.2	1142.6 ± 5.3	1142.4 ± 5.4	1414.6 ± 15	1378 ± 15	1348 ± 15	1.495 ± 0.07	1.456 ± 0.068	1.45 ± 0.068
x1 = 0.4049	1130.6 ± 5.2	1129.8 ± 5.3	1121.9 ± 5.3	1417.5 ± 16	1384 ± 15	1356.2 ± 15	1.455 ± 0.068	1.429 ± 0.067	1.402 ± 0.066
x1 = 0.5051	1117.6 ± 5.1	1117 ± 5.2	1110.9 ± 5.3	1420.6 ± 16	1390.6 ± 15	1364.8 ± 15	1.427 ± 0.067	1.411 ± 0.066	1.383 ± 0.065
x1 = 0.6049	1102.6 ± 5	1101.8 ± 5.1	1101.1 ± 5.2	1424.5 ± 16	1397.8 ± 15	1374 ± 15	1.405 ± 0.066	1.389 ± 0.065	1.371 ± 0.065
x1 = 0.7042	1083.9 ± 5	1082.7 ± 5.1	1080.7 ± 5.2	1428.3 ± 16	1405 ± 15	1383 ± 15	1.359 ± 0.064	1.354 ± 0.064	1.343 ± 0.063
x1 = 0.8032	1065.2 ± 4.9	1065 ± 5	1064.5 ± 5.1	1432.5 ± 16	1412.5 ± 15	1392.3 ± 15	1.333 ± 0.063	1.316 ± 0.062	1.307 ± 0.062
x1 = 0.9018	1050.9 ± 4.8	1048.8 ± 4.9	1043.8 ± 5	1437 ± 16	1420 ± 15	1401.7 ± 15	1.295 ± 0.061	1.282 ± 0.061	1.267 ± 0.06
x1 = 1	1035.7 ± 4.8	1031.3 ± 4.9	1028 ± 4.9	1452 ± 16	1428.8 ± 16	1413 ± 15	1.32 ± 0.062	1.249 ± 0.059	1.241 ± 0.059

O=Cc1ccccc1 [benzaldehyde] + Clc1ccccc1
[1]
Settings	mass density, 303.15 K [kg/m3]	mass density, 308.15 K [kg/m3]	mass density, 313.15 K [kg/m3]	speed of sound, 303.15 K [m/s]	speed of sound, 308.15 K [m/s]	speed of sound, 313.15 K [m/s]	viscosity, 303.15 K [mPa·s]	viscosity, 308.15 K [mPa·s]	viscosity, 313.15 K [mPa·s]
x1 = 0.1006	1084.3 ± 5	1082 ± 5.1	1077.9 ± 5.1	1265 ± 14	1241 ± 14	1235 ± 14	0.7984 ± 0.053	0.7805 ± 0.052	0.7641 ± 0.051
x1 = 0.2011	1081.4 ± 5	1079.1 ± 5	1075 ± 5.1	1282 ± 14	1258 ± 14	1249 ± 14	0.8332 ± 0.055	0.8123 ± 0.054	0.7949 ± 0.053
x1 = 0.3015	1077.2 ± 4.9	1075 ± 5	1070.2 ± 5.1	1299 ± 15	1277 ± 14	1267 ± 14	0.8814 ± 0.058	0.8532 ± 0.056	0.8407 ± 0.056
x1 = 0.4017	1071.9 ± 4.9	1070.3 ± 5	1065.2 ± 5.1	1318 ± 15	1296 ± 15	1286 ± 14	0.9297 ± 0.06	0.905 ± 0.059	0.8891 ± 0.058
x1 = 0.5017	1066.5 ± 4.9	1065.2 ± 5	1059.9 ± 5.1	1337 ± 15	1316 ± 15	1305 ± 15	0.9803 ± 0.063	0.9559 ± 0.062	0.9425 ± 0.061
x1 = 0.6017	1060.9 ± 4.9	1059.8 ± 5	1054.6 ± 5.1	1356 ± 15	1337 ± 15	1325 ± 15	1.029 ± 0.066	1.009 ± 0.065	0.9925 ± 0.064
x1 = 0.7015	1055 ± 4.8	1053.8 ± 4.9	1049.1 ± 5	1376 ± 15	1358 ± 15	1345 ± 15	1.082 ± 0.069	1.061 ± 0.068	1.045 ± 0.067
x1 = 0.8011	1048.5 ± 4.8	1047.5 ± 4.9	1043.3 ± 5	1397 ± 15	1380 ± 15	1366 ± 15	1.134 ± 0.072	1.118 ± 0.071	1.099 ± 0.07
x1 = 0.9006	1041.6 ± 4.8	1040.8 ± 4.9	1036.9 ± 5	1418 ± 15	1403 ± 15	1387 ± 15	1.196 ± 0.076	1.184 ± 0.075	1.163 ± 0.074
x1 = 1	1031.7 ± 4.8	1031.3 ± 4.9	1028 ± 4.9	1452 ± 16	1428 ± 16	1413 ± 15	1.32 ± 0.082	1.249 ± 0.078	1.242 ± 0.078

Clc1ccccc1 [chlorobenzene] + O=Cc1ccccc1
[1], x2 = 0
Settings	mass density [kg/m3]	speed of sound [m/s]	viscosity [mPa·s]
303.15 K	1086.6 ± 5	1249 ± 14	0.7147 ± 0.048
308.15 K	1085.1 ± 5.1	1224 ± 14	0.7469 ± 0.05
313.15 K	1081.1 ± 5.2	1220 ± 14	0.7383 ± 0.05

O=Cc1ccccc1 [benzaldehyde]
[2]
Settings	mass density	speed of sound	viscosity
303.15 K	1031.7 ± 4.8 kg/m3 and 1035.7 ± 4.8 kg/m3	1452 ± 16 m/s	1.32 ± 0.082 mPa·s
308.15 K	1031.3 ± 4.9 kg/m3	1428 ± 16 m/s and 1428.8 ± 16 m/s	1.249 ± 0.078 mPa·s and 1.249 ± 0.059 mPa·s
313.15 K	1028 ± 4.9 kg/m3	1413 ± 15 m/s	1.242 ± 0.078 mPa·s and 1.241 ± 0.059 mPa·s
